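96-well plates; 48 h exposure; 5 concentrations. Endpoints by linear interpolation between flanking doses. Not reached: highest tested concentration assigned. TGI: total growth inhibition.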
Assays:
Experiment in all cases: NCI anticancer screen, dose series, 48 h
HT29 colon = system: HT29 colon
TK-10 renal = system: TK-10 renal
COLO 205 colon = system: COLO 205 colon
HCT-116 colon = system: HCT-116 colon
CAKI-1 renal = system: CAKI-1 renal
U251 CNS = system: U251 CNS
SW-620 colon = system: SW-620 colon
CCRF-CEM leukemia = system: CCRF-CEM leukemia
UACC-62 melanoma = system: UACC-62 melanoma
HCT-15 colon = system: HCT-15 colon
K-562 leukemia = system: K-562 leukemia
SNB-75 CNS = system: SNB-75 CNS
MCF7 breast = system: MCF7 breast
KM12 colon = system: KM12 colon
PC-3 prostate = system: PC-3 prostate
DU-145 prostate = system: DU-145 prostate
HL-60(TB) leukemia = system: HL-60(TB) leukemia
HOP-62 NSCLC = system: HOP-62 NSCLC
RXF 393 renal = system: RXF 393 renal
SF-539 CNS = system: SF-539 CNS

SMILES | TGI (HT29 colon) [µM] | TGI (TK-10 renal) [µM] | TGI (COLO 205 colon) [µM] | TGI (HCT-116 colon) [µM] | TGI (CAKI-1 renal) [µM] | TGI (U251 CNS) [µM] | TGI (SW-620 colon) [µM] | TGI (CCRF-CEM leukemia) [µM] | TGI (UACC-62 melanoma) [µM] | TGI (HCT-15 colon) [µM] | TGI (K-562 leukemia) [µM] | TGI (SNB-75 CNS) [µM] | TGI (MCF7 breast) [µM] | TGI (KM12 colon) [µM] | TGI (PC-3 prostate) [µM] | TGI (DU-145 prostate) [µM] | TGI (HL-60(TB) leukemia) [µM] | TGI (HOP-62 NSCLC) [µM] | TGI (RXF 393 renal) [µM] | TGI (SF-539 CNS) [µM]
CN(C)CCN(C(=Nc1ccccc1)N1CCCC1)c1ccccc1 | 92.4 | > 100 | > 100 | > 100 | > 100 | > 100 | > 100 | > 100 | > 100 | > 100 | > 100 | > 100 | > 100 | > 100 | > 100 | > 100 | > 100 | > 100 |  | 
O=C(/C=C(\O)c1ccccc1)c1cc(-c2ccccc2)n(-c2ccccc2)n1 | 18.7 | > 100 | 37.4 | > 100 | 54.5 | 62.6 | > 100 | 7.16 | 13.4 | > 100 | > 100 |  | > 100 | > 100 | > 100 | > 100 | > 100 | 23.9 | > 100 | 72.3
NCc1cc(O)c(O)c(O)c1 | > 100 | > 100 | > 100 | > 100 | > 100 | > 100 | > 100 | > 100 | > 100 | > 100 | > 100 | > 100 |  | > 100 |  |  | > 100 | > 100 | > 100 | 
O=C(CCN1CCOCC1)C(=Cc1ccccc1)C(=O)CCN1CCOCC1 | 8.35 |  | 6.97 | 5.5 | 13.5 | 28.4 | 4.29 | 7.84 | 6.19 | 4.74 | 2.15 | 29.7 | 13.4 | 13 |  |  | 3.52 | 37.5 | 3.14 | 10
N#Cc1c(N2CCOCC2)[nH]c(=O)c(C(c2c(Cl)cccc2Cl)c2c(O)c(C#N)c(N3CCOCC3)[nH]c2=O)c1O | 28.9 | 32.5 | 26.7 | > 100 | 33.2 | 30.4 | 36.8 | 66.8 | 30.2 | 28.2 | 23.2 |  | 34.2 | 32.7 | 37.7 | 69.2 | 29.3 | 79.3 | 35.5 | 34.9
O=C(N/N=C\C(F)(F)F)c1ccncc1 | > 100 | > 100 | > 100 |  | > 100 | > 100 | > 100 | > 100 | > 100 | > 100 | > 100 | > 100 | > 100 | > 100 | > 100 | > 100 | > 100 | > 100 | > 100 | 
COc1cc(C2C(Cl)C(=O)N2NC(=O)c2ccc(NC(C)=O)cc2OC)ccc1O (stereo not given) | 34.1 |  | 32 | 33.2 | 94 |  | 76.3 | 14.6 | 36.2 | 40.6 | 55.2 | 80.1 | 38.1 | 68 | 55 | 43.5 | 44.8 |  | 47.4 | 48.1
C[N+](C)=c1nc(N2CCc3ccccc3C2)ss1 |  | > 100 | > 100 | > 100 | > 100 | > 100 | > 100 | > 100 | > 100 | > 100 | > 100 | > 100 |  | > 100 |  |  | > 100 | > 100 | > 100 | > 100
CN(C)Cc1cc(C(C)(C)C)cc(C2CCCCC2)c1O | 13.5 | 29.1 | 27.2 | > 100 | 35 | 27.4 | 30.2 | 27.1 | 29.8 | 28.6 | 24.5 | 22.1 | 36.4 | 26.4 | 26.4 | 27.8 | 33.9 | 40 | 26.4 | 22.8
COc1cc(C(=O)Nc2cc(C(N)=O)cc(OC)c2OC)cc(NC(=O)/C=C/c2ccccc2)c1OC | > 100 | > 100 | > 100 |  |  |  | > 100 | > 100 | 35.6 | > 100 | > 100 |  | > 100 | > 100 | > 100 | > 100 | > 100 |  | > 100 | > 100
Cc1ccc(S(=O)(=O)NCCCSCCSCCCN)cc1 | > 100 | > 100 | > 100 | > 100 |  | > 100 | > 100 | > 100 |  | > 100 | > 100 | > 100 | > 100 | > 100 | > 100 | > 100 | > 100 |  | > 100 | 
O=c1oc2ccc([N+](=O)[O-])cc2c(Nc2ccc3c(c2)S(=O)(=O)c2ccccc2O3)c1[N+](=O)[O-] | > 100 | > 100 | > 100 | > 100 | > 100 | > 100 | > 100 | > 100 | > 100 | > 100 | > 100 | > 100 | > 100 | > 100 | > 100 | > 100 | > 100 | > 100 | > 100 | > 100
CC(=O)c1cc(C)n2c1CS[C@@H]2c1ccccc1 | > 100 | > 100 | 29 | > 100 | > 100 | 92.7 | > 100 | 60.9 |  | > 100 | > 100 | > 100 | > 100 | > 100 | > 100 | 93.6 | > 100 | > 100 | 91.6 | 
CC1OC(OC2C(Oc3cc(O)c4c(c3)O[C@H](c3ccc(O)cc3)CC4=O)OC(CO)C(O)C2O)C(O)C(O)C1O (stereo not given in full) | > 100 | > 100 | > 100 | > 100 | > 100 | > 100 | > 100 | > 100 | > 100 | > 100 |  | > 100 | > 100 | > 100 | > 100 | > 100 | > 100 | > 100 | > 100 | > 100
CC[C@@H]1/C=C/C=C/C[C@H](C)[C@@H](O)[C@](C)(O)C(=O)[C@H](C)[C@@H](O)[C@H](C)C(=O)[C@H](C)[C@@H](O)[C@H](C)/C=C/C(=O)O[C@H]2[C@@H](C)[C@@H](CC1)O[C@@]1(CC[C@@H](C)[C@@H](CC(C)O)O1)[C@@H]2C (stereo not given in full) | 4.19 | 12.3 | 1.99 | 3.11 | 12.7 | 11.1 | > 42 | 6.05 | 6.57 | 11.3 | > 38.2 | 9.11 | 7.08 | 11.7 | 5.05 | 6.76 | 4.25 | 5.47 | 4.06 | 10.3
CN1C(=O)C2C=C3CCCCC3=CC2N(C)C1=O (stereo not given) | > 100 | > 100 | > 100 | > 100 | > 100 | > 100 | > 100 | > 100 | > 100 | > 100 | > 100 | > 100 | > 100 | > 100 | > 100 | > 100 | > 100 | > 100 | > 100 | > 100
CC(=O)NNc1nc(C)c(C(=O)NNC(=O)C(=O)Nc2c(C)cccc2C(C)(C)C)s1 | > 100 | > 100 | > 100 | > 100 | > 100 | > 100 | > 100 | 69.9 | > 100 | > 100 | > 100 | > 100 |  | > 100 |  |  | > 100 | > 100 | > 100 | > 100

Source: PubChem BioAssay (NCI)
